Experimental data published in patent US20060063791A1, “(Spirocyclylamido)aminothiophene compounds” (priority 2004, published 2006).
Counter-ions that a name gives are not always drawn.

What was measured:
[1] = target: T1, wild-type c-Kit receptor protein endogenously expressed in H526 cells (Homo sapiens, UniProt P10721); assay: Assay for inhibition of c-Kit in intact cells (C-KIT H526 cell assay, ELISA of SCF-stimulated tyrosine phosphorylation); type: cell-based; details: 3 h compound pre-incubation, SCF stimulation 15 min, read-out: IC50 (concentration of compound that inhibits SCF-induced tyrosine phosphorylation of the c-Kit protein by 50%)
T1 construct: wild-type c-Kit receptor protein that is endogenously expressed in H526 cells; endogenous in cells; host or cells: H526 (ATCC # CRL-5811), human small cell lung cancer
Experimental: C-KIT H526 Cell Assay Protocol
I. Assay for Inhibition of c-Kit in Intact Cells
The ability of compounds to inhibit the tyrosine kinase activity of c-Kit was determined in a cell-based ELISA assay using the H526 cell line (ATCC # CRL-5811), which was originally derived from a human small cell lung cancer. The assay determines the ability of compounds to block ligand-stimulated tyrosine phosphorylation of the wild-type c-Kit receptor protein that is endogenously expressed in H526 cells. Cells are pre-incubated with compounds at various concentrations prior to addition of stem cell factor (SCF), the ligand for the c-Kit receptor tyrosine kinase. Cell lysates are then prepared and the c-Kit protein is captured onto a c-Kit antibody-coated 96-well ELISA plate. The phosphotyrosine content of the receptor protein is then monitored by quantitation of the degree of binding of an antibody that recognizes only the phosphorylated tyrosine residues within the captured protein. The antibody used has a reporter enzyme (e.g. horseradish peroxidase, HRP) covalently attached, such that binding of antibody to phosphorylated c-Kit can be determined quantitatively by incubation with an appropriate HRP substrate.
Cell Lysis Buffer: • 50 mM Tris-HCl, pH 7.4 • 150 mM NaCl • 10% Glycerol • 1% Triton X-100 • 0.5 mM EDTA • 1 μg/mL leupeptin • 1 μg/mL aprotinin • 1 mM Sodium orthovanadate
Anti c-Kit Antibody: • 0.5 μg/mL anti c-Kit Ab-3 (Lab Vision, catalog #MS289P1) in 50 mM Sodium bicarbonate, pH 9.
ELISA Assay Plates: • ELISA assay plates are prepared by addition of 100 μL of anti c-Kit antibody to each well of a 96-well Microlite-2 plate (Dynex, catalog # 7417), followed by incubation at 37° C. for 2 h. The wells are then washed twice with 300 μL wash buffer.
Plate Wash Buffer: • PBS containing 0.5% Tween-20 (PBST)
Cell Assay Medium: • RPMI with 0.1% BSA
pY20-HRP: • 25 ng/mL pY20-HRP (Calbiochem, catalog # 525320) in PBS, containing 0.5% Tween-20, 5% BSA, 1 mM Sodium orthovanadate
HRP Substrate: • Chemoluminescent detection reagent (Pierce, catalog # 37075)
Cultures of H526 cells, growing in RPMI with 10% fetal calf serum, were collected by centrifugation, washed twice with PBS, and suspended in cell assay medium. Cells were then distributed into a V-bottom 96-well plate at 7.5×10^4 cells per well in 100 μL cell assay medium.
Compound dilutions were prepared from 10 mM DMSO stocks by dilution in cell assay medium, the final concentration of DMSO in the assay being 0.1%. To compound incubation wells, 50 μL of the test compound was added (compounds are assayed at concentrations between 0.1 nM and […]); to positive and negative control wells, 50 μL cell assay medium containing 0.1% DMSO was added. The cells were then incubated with compound at 37° C. for 3 h. SCF (R&D Systems, catalog #255-SC-010) was then added in order to stimulate the c-Kit receptor and induce its tyrosine phosphorylation. Then, 10 μL of a 1.6 μg/mL solution of SCF in cell assay medium was added to all wells apart from the negative control wells, and the cells were incubated for an additional 15 min at 37° C. Following the addition of ice-cold PBS, the plate was centrifuged at 1000 rpm for 5 min, the medium removed by aspiration, and the cell pellet lysed by the addition of 120 μL ice-cold cell lysis buffer per well. The plate was kept on ice for 20 min and 100 μL of the cell lysates from each well were then transferred to the wells of an ELISA assay plate and incubated at 4° C. for 16 h.
Following incubation of the cell lysates in the ELISA plate, the wells were washed 4 times with 300 μL wash buffer, then 100 μL of the phosphotyrosine detection antibody pY20-HRP was added to each well and the plate incubated at rt for 2 h. The wells were then washed 4 times with 300 μL wash buffer. Then, 50 μL of the chemiluminescent HRP substrate was added to each well for luminometric quantitation of the amount of antiphosphotyrosine-HRP conjugate bound to the plate. […]

[2] = system: MO7e human leukemia cells; details: cited from earlier work
[3] = system: MO7e human leukemia cells; details: cited from earlier work; remark: listed apart in the source

T1 sequence (P10721 26-976): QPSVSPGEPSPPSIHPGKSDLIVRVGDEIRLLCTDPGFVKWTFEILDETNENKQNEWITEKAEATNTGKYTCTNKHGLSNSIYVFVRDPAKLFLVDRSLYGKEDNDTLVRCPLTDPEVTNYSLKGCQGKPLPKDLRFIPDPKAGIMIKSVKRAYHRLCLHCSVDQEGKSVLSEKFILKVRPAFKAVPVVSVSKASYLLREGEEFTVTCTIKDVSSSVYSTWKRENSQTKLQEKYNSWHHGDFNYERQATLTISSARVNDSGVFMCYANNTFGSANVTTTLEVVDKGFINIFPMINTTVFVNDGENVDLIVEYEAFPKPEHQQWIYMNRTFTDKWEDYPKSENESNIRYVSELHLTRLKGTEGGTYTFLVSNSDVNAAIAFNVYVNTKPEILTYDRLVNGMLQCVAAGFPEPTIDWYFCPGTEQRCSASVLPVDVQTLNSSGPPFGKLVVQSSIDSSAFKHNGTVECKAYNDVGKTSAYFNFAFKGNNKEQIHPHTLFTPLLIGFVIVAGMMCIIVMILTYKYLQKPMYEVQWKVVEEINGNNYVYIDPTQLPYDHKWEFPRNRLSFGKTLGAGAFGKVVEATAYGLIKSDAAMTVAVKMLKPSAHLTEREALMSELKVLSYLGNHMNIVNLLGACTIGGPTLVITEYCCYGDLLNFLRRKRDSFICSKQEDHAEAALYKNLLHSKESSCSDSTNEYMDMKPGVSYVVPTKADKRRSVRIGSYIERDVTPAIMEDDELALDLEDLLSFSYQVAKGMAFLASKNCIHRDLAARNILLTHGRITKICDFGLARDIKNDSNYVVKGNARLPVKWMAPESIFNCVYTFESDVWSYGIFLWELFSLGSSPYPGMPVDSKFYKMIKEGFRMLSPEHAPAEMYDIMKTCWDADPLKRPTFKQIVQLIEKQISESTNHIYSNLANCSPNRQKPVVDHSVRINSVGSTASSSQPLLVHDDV

IC50 [1] [µM] | Structure (SMILES) | other results
> 15 | CN1CCN[C@]2(CC[C@@H](NC(=O)c3sccc3NCc3ccnc4ccccc34)CC2)C1=O [Compound 1, cis-N-(4-Methyl-5-oxo-1,4-diazaspiro[5.5]undec-9-yl)-3-[(quinolin-4-ylmethyl)amino]thiophene-2-carboxamide] | 
> 15 | O=C(N[C@H]1CC[C@@]2(CC1)CC(=O)N(Cc1ccccc1)N2)c1sccc1NCc1ccnc2ccccc12 [Compound 2, cis-N-(2-Benzyl-3-oxo-1,2-diazaspiro[4.5]dec-8-yl)-3-[(quinolin-4-ylmethyl)amino]thiophene-2-carboxamide] | 
> 15 | O=C(NC1CCC2(CC1)NC(=O)N(Cc1ccccc1)C2=O)c1sccc1NCc1ccnc2ccccc12 (stereo not drawn) [Compound 3, N-(3-Benzyl-2,4-dioxo-1,3-diazaspiro[4.5]dec-8-yl)-3-[(quinolin-4-ylmethyl)amino]thiophene-2-carboxamide] | 
> 15 | O=C1NC(=O)C2(CCC(NC(=O)c3sccc3NCc3ccnc4ccccc34)CC2)N1 (stereo not drawn) [Compound 4, N-(2,4-Dioxo-1,3-diazaspiro[4.5]dec-8-yl)-3-[(quinolin-4-ylmethyl)amino]thiophene-2-carboxamide] | 
> 15 | Cc1csc(C(=O)NC2CCC3(CC2)NC(=O)N(CCC(C)C)C3=O)c1NCc1ccnc2ccccc12 (stereo not drawn) [Compound 5, N-[3-(3-Methylbutyl)-2,4-dioxo-1,3-diazaspiro[4.5]dec-8-yl]-4-methyl-3-[(quinolin-4-ylmethyl)amino]thiophene-2-carboxamide] | 
> 15 | O=C(Nc1ccc2c(c1)C1(CCN(C(=O)OCc3ccccc3)CC1)CN2)c1sccc1NCc1ccnc2ccccc12 [Compound 6] | 
 | Cc1ccc(NC(=O)c2ccc(CN3CCN(C)CC3)cc2)cc1Nc1nccc(-c2cccnc2)n1 [Gleevec, imatinib mesylate] | GM-CSF stimulated growth [2]: not affected; apoptosis ([3]; Kit ligand-stimulated conditions): induces apoptosis; Kit ligand-stimulated growth ([3]; Kit ligand-stimulated): inhibited
